Source: patent publication US5061794A, “Cephalosporin derivatives, and antibacterial agents” (priority 1986, dated 1991)
≈ marks a conversion by molar mass, not a printed value.

What was measured:
E. coli CSH(RE45) = test: microbe, parasite or virus in culture; assay type: cell-based; conditions: *E. coli CSH(RE45), lactamase-producing strain; 10^6 CFU/ml
Summary of the method: (§1)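 Each organism, pre-grown overnight in Mueller Hinton broth, is inoculated at 10^6 CFU/ml onto Mueller Hinton agar series with increasing compound concentration; growth inhibition is scored after 16 h, 37° C., giving MIC (μg/ml).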

E. coli CSH2 (RK1) = test: microbe, parasite or virus in culture; assay type: cell-based; conditions: *E. coli CSH2 (RK1), lactamase-producing strain; 10^6 CFU/ml
Summary of the method: as §1

E. cloacae 963 = test: in vitro antibacterial activity, agar plate dilution method (MIC); assay type: cell-based; conditions: Enterobacter cloacae, 963, 16 h, read-out: Minimum Inhibitory Concentration (MIC), E. cloacae 963; 10^6 CFU/ml
Summary of the method: as §1

E. cloacae Nek 39 = test: as above; assay type: cell-based; conditions: *E. cloacae Nek 39, lactamase-producing strain; 10^6 CFU/ml
Summary of the method: as §1

E. coli GN5482 = test: as above; assay type: cell-based
Summary of the method: as §1

E. coli NIHJ JC2 = test: as above; assay type: cell-based; conditions: E. coli NIHJ JC2; 10^6 CFU/ml, 37° C., 16 hours
Summary of the method: as §1

K. oxytoca GN10650 = test: as above; assay type: cell-based; conditions: *K. oxytoca GN10650, lactamase-producing strain; 10^6 CFU/ml
Summary of the method: as §1

K. pneumoniae No. 42 = test: as above; assay type: cell-based; conditions: *K. pneumoniae No. 42, lactamase-producing strain; 10^6 CFU/ml
Summary of the method: as §1

K. pneumoniae PCI-602 = test: as above; assay type: cell-based; conditions: 10^6 CFU/ml
Summary of the method: as §1

M. morganii GN5407 = test: as above; assay type: cell-based; conditions: *M. morganii GN5407, lactamase-producing strain; 10^6 CFU/ml
Summary of the method: as §1

P. vulgaris HX-19 = test: as above; assay type: cell-based; conditions: P. vulgaris HX-19; 10^6 CFU/ml
Summary of the method: as §1

P. vulgaris No. 33 = test: as above; assay type: cell-based; conditions: *P. vulgaris No. 33, lactamase-producing strain; 10^6 CFU/ml
Summary of the method: as §1

S. aureus 209P NIHJ-JC1 = test: as above; assay type: cell-based; conditions: S. aureus 209P NIHJ-JC1, 10^6 CFU/ml, 37° C., 16 hours
Summary of the method: as §1

S. marcescens IAM 1184 = test: as above; assay type: cell-based; conditions: S. marcescens IAM 1184, 10^6 CFU/ml
Summary of the method: as §1

S. marcescens No. 16-2 = test: as above; assay type: cell-based; conditions: *S. marcescens No. 16-2, lactamase-producing strain; 10^6 CFU/ml
Summary of the method: as §1

Ps. aeruginosa AK 109 = test: as above; assay type: cell-based, Pseudomonas aeruginosa; conditions: Pseudomonas aeruginosa, AK109, 16 h, read-out: Minimum Inhibitory Concentration (MIC)
Summary of the method: as §1

Ps. aeruginosa AKR17 = test: as above; assay type: cell-based, Pseudomonas aeruginosa; conditions: Pseudomonas aeruginosa, AKR17, 16 h, read-out: Minimum Inhibitory Concentration (MIC)
Summary of the method: as §1

Ps. aeruginosa IF03445 = test: as above; assay type: cell-based, Pseudomonas aeruginosa; conditions: 10^6 CFU/ml
Summary of the method: as §1

Ps. cepacia 23 = test: as above; assay type: cell-based, Pseudomonas cepacia; conditions: Ps. cepacia 23, 10^6 CFU/ml
Summary of the method: as §1

A. calcoaceticus No. 4 = test: as above; assay type: cell-based, Acinetobacter calcoaceticus; conditions: A. calcoaceticus No. 4; 10^6 CFU/ml
Summary of the method: as §1

Row | SMILES | Minimum Inhibitory Concentration (MIC) (E. coli CSH(RE45)) | Minimum Inhibitory Concentration (MIC) (E. coli CSH2 (RK1)) | MIC (E. cloacae 963) | Minimum Inhibitory Concentration (MIC) (E. cloacae Nek 39) | Minimum Inhibitory Concentration (MIC) (E. coli NIHJ JC2) | Minimum Inhibitory Concentration (MIC) (K. oxytoca GN10650) | Minimum Inhibitory Concentration (MIC) (K. pneumoniae No. 42) | Minimum Inhibitory Concentration (MIC) (M. morganii GN5407) | Minimum Inhibitory Concentration (MIC) (P. vulgaris HX-19) | Minimum Inhibitory Concentration (MIC) (P. vulgaris No. 33) | Minimum Inhibitory Concentration (MIC) (S. marcescens No. 16-2) | MIC (Ps. aeruginosa AK 109) | MIC (Ps. aeruginosa AKR17) | Minimum Inhibitory Concentration (MIC) (A. calcoaceticus No. 4) | also measured
1 | Nc1nc(C(=NOC(C(=O)O)c2ccccc2)C(=O)NC2C(=O)N3C(C(=O)O)=C(CSc4nc(C(=O)O)c(-c5ccc(O)c(O)c5)s4)CSC23)cs1 (single isomer, unassigned) [Example 51 DB] | 0.0125 µg/mL | 0.0125 µg/mL | 0.05 µg/mL (≈ 0.0637 µM) | 0.05 µg/mL | 0.39 µg/mL | 0.025 µg/mL | 0.05 µg/mL | 0.05 µg/mL | < 0.006 µg/mL | 0.0125 µg/mL | 0.78 µg/mL | 0.39 µg/mL (≈ 0.497 µM) | 0.39 µg/mL (≈ 0.497 µM) | 0.1 µg/mL | Minimum Inhibitory Concentration (MIC) (E. coli GN5482; *E. coli GN5482, lactamase-producing strain, 10^6 CFU/ml): 0.78 µg/mL; Minimum Inhibitory Concentration (MIC) (K. pneumoniae PCI-602; K. pneumoniae PCI-602): < 0.006 µg/mL; Minimum Inhibitory Concentration (MIC) (S. aureus 209P NIHJ-JC1): 25 µg/mL; Minimum Inhibitory Concentration (MIC) (S. marcescens IAM 1184): 0.05 µg/mL; MIC (Ps. aeruginosa IF03445; Pseudomonas aeruginosa, IF03445, 16 h, read-out: Minimum Inhibitory Concentration (MIC), Ps. aeruginosa IF03445): 0.39 µg/mL (≈ 0.497 µM); Minimum Inhibitory Concentration (MIC) (Ps. cepacia 23): < 0.006 µg/mL
2 | CC(=O)Oc1ccc(-c2nc(SCC3=C(C(=O)O)N4C(=O)C(NC(=O)C(=NOC(C(=O)O)c5ccccc5)c5csc(N)n5)C4SC3)sc2CC(=O)O)cc1OC(C)=O (single isomer, unassigned) [Example 61 DA] | 3.12 µg/mL | 0.0125 µg/mL | 0.39 µg/mL (≈ 0.442 µM) | 0.1 µg/mL | 0.78 µg/mL | 0.05 µg/mL | 0.1 µg/mL | 0.05 µg/mL | < 0.006 µg/mL | 0.025 µg/mL | 0.78 µg/mL | 0.39 µg/mL (≈ 0.442 µM) | 0.39 µg/mL (≈ 0.442 µM) | 0.1 µg/mL | MIC (E. coli GN5482; Escherichia coli, GN5482, 16 h, read-out: Minimum Inhibitory Concentration (MIC)): 0.39 µg/mL (≈ 0.442 µM); MIC (K. pneumoniae PCI-602; Klebsiella pneumoniae, PCI602, 16 h, read-out: Minimum Inhibitory Concentration (MIC), K. pneumoniae PCI-602): < 0.006 µg/mL; MIC (S. aureus 209P NIHJ-JC1; Staphylococcus aureus, 16 h, read-out: Minimum Inhibitory Concentration (MIC)): 25 µg/mL (≈ 28.3 µM); MIC (S. marcescens IAM 1184; Serratia marcescens, IAM1184, 16 h, read-out: Minimum Inhibitory Concentration (MIC)): 0.05 µg/mL (≈ 0.0566 µM); Minimum Inhibitory Concentration (MIC) (Ps. aeruginosa IF03445; Ps. aeruginosa IF03445): 0.39 µg/mL; MIC (Ps. cepacia 23; Burkholderia cepacia, 16 h, read-out: Minimum Inhibitory Concentration (MIC)): < 0.006 µg/mL
